{"source": "patent US10197557B2", "about": "“Small molecules for endothelial cell activation” (The Regents of the University of California, priority 2011, dated 2019)", "tested_on": "Primary human umbilical endothelial cells (EC)", "assay": "Biological platform: EC-monocyte co-culture, flow cytometry profiling (CD40, CD209, CD163) across 10 parameters", "assay_type": "cell-based", "conditions": "Prestwick library of FDA approved compounds (FIG. 1B)", "description": "The biological platform or assay described herein can be embodied in different ways (see, e.g., FIGS. 1 and 9). An embodiment of the biological platform of invention is provided below: • 1. Primary human umbilical endothelial cells (EC) are adhered in 96 or 384-well plates at confluency for 2 hours. • 2. Control stimuli (or compounds of interest) are added to EC for 5 hours. • 3. Compounds are removed, EC washed, and primary human peripheral blood monocytes are added. • 4. After 24 hours, 25 μl of supernatant is removed for MIP1α and MIP1β analysis. • 5. After 42-48 total hours of co-culture, cells are harvested for flow cytometry. • 6. Cells are labeled with: CD40, CD209, and CD163. • a. Parameter 1: Gate on EC/monocytes by using FSC vs SSC on whole co-culture population • b. Parameter 2: Use SSC vs. CD40 to separate monocytes from EC. Note: loss of EC population reflects compound toxicity. • c. Parameter 3: Gate on CD40+ monocytes • d. Parameter 4: Determine CD40 MFI on CD40+ macrophages • e. Parameter 5: Determine CD209 MFI on CD40+ macrophages • f. Parameter 6: Determine CD163 MFI on CD40+ macrophages • g. Parameter 7: Subtract vehicle control MFIs from each sample of interest. In the example below (FIGS. 2A and 2B), EC stimulation with IFNγ may promote EC-triggered MΦ with CD40 MFI=40, CD209 MFI=60, CD163=10. DMSO treated EC promote MΦ with CD40=20, CD209 MFI=30, and CD163=100. […]", "data": [{"smiles": "CN(C)C(=N)N=C(N)N", "note": "[metformin]", "values": [{"measurement": "position in the profile of pro-inflammatory (enhanced) and anti-inflammatory (dampening) compounds", "value": "dampening subset"}]}]}
